Laboratory results as given in patent US20250295656A1, “COMBINATION OF LURBINECTEDIN AND IMMUNE CHECKPOINT INHIBITORS” (priority 2020, published 2025).

How the values were obtained:
[1] = tested on: U2OS cells stably expressing HMGB1-GFP; assay: HMGB1 release (loss of nuclear HMGB1-GFP fluorescence); format: cell-based, human; conditions: lurbinectedin 1 nM to 1 μM, MTX 1 and 3 μM, medium to late time points
Description: (a) Human osteosarcoma U2OS (a), human breast cancer HCC70 (b) human colon cancer HT29 cells (c) and murine methylcholantrene-induced fibrosarcoma MCA205 cells (d) were treated with lurbinectedin (Lurbi, 1 nM, 10 nM, 100 nM and 1 μM) for the indicated times. Subsequently, the cells were stained with 1 μM Hoechst 33342 and 1 μM propidium iodide and assessed for the loss of viability by automated image acquisition. Images were segmented, cellular debris was excluded and the number of cells with normal nuclear morphology was enumerated. Cells stably expressing CALR-GFP were treated as above. Following the cells were fixed with 3.7% of PFA, stained with 1 μM Hoechst 33342 and assessed by automated image acquisition. Images were segmented, cellular debris was excluded and CALR-GFP granularity (a surrogate marker of CALR exposure) was evaluated in the cytoplasmic region of cells with normal nuclear morphology. Wild type cells were treated as above and then assessed for cytoplasmic quinacrine granularity (after staining with the ATP-sensitive dye quinacrine together with Hoechst 33342) by automated image acquisition, segmentation and analysis. Cells stably expressing HMGB1-GFP were treated as above and then assessed for nuclear HMGB1-GFP fluorescence intensity. The cells were fixed and stained with Hoechst 33342 and images were acquired, segmented and analyzed. […]

MCA205 tumours = assay: Established MCA205 tumours in immunodeficient mice; format: in vivo; conditions: athymic (nu/nu) mice; 0.18 mg/kg i.v. day 1, 7 and 14
Description: Live MCA205 cells were injected subcutaneously (s.c.) into immunocompetent C57BL/6 mice or immunodeficient nu/nu mice as depicted in the scheme in (a) When tumours became palpable, mice were intravenously ([…]). Tumour growth was assessed regularly for the following 30 days. Data is depicted as tumour growth curves (b,d) and overall survival plots (c,e). Data were analyzed with TumGrowth.
In order to assess the capacity of lurbinectedin to stimulate anticancer immunity in a monotherapeutic approach and to convert tumour cells into a therapeutic vaccine we exposed murine fibrosarcoma cells to the drug in vitro (in conditions previously established to induce a sufficient amplitude of cell death) and then injected the dying cancer cells into syngeneic immunocompetent mice. […] Next we evaluated the effect of lurbinectedin on established cancers growing on immunocompetent or immunodeficient mice. […]
Six- to eight-week-old female wild-type C57BL/6 and nu/nu mice were obtained from Envigo France (Huntingdon, UK) and were kept in the animal facility at the Gustave Roussy Campus Cancer in a specific pathogen-free and temperature-controlled environment with 12 h day, 12 h night cycles and received food and water ad libitum. […] Animals were monitored and tumour growth documented regularly until end-points were reached. […]

Question: For `COc1ccc2[nH]c3c(c2c1)CCN[C@]31CS[C@@H]2c3c(OC(C)=O)c(C)c4c(c3[C@H](COC1=O)N1[C@@H]2[C@H]2c3c(cc(C)c(OC)c3O)C[C@@H]([C@@H]1O)N2C)OCO4` [lurbinectedin], which “nuclear GFP signal (HMGB1-GFP)” value [1] is on record?
Answer: significant decrease

Question: And the “therapeutic effect (tumour growth, overall survival)” value (MCA205 tumours)?
Answer: lost
